A value given as a limit tells only on which side of the number the result lay.

The target in the test is T1, N-terminally GST-tagged DLK (catalytic domain amino acid 1-520) (Homo sapiens, UniProt Q12852).
T1 construct: N-terminally GST-tagged DLK (catalytic domain amino acid 1-520); purchased Carna Bioscience
T1 sequence (Q12852 1-520): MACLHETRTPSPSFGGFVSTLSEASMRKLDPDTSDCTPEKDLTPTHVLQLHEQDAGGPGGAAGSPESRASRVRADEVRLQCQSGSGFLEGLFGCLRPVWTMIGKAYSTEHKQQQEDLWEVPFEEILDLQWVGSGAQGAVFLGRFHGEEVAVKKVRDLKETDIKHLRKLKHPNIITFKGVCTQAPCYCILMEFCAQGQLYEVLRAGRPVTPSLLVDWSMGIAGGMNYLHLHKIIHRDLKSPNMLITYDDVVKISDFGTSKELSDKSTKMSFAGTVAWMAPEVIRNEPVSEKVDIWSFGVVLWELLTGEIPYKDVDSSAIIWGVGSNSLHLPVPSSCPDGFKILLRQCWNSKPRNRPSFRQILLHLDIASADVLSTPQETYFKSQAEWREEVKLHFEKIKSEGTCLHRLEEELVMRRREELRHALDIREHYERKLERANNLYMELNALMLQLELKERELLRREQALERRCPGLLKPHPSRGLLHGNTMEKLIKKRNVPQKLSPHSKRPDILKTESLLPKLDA
As to the kind of experiment: DLK TR-FRET inhibition assay. Particulars: 5 nM GST-DLK, 40 nM HIS-MKK4 K131M substrate, 30 μM ATP, 60 minutes at ambient temperature. It counts as biochemical. The method in brief: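 Phosphorylated MKK4 was quantified by TR-FRET (Eu-labelled anti-phospho-MKK4, D2 anti-HIS; 3 h, 665 and 615 nm emission) after EDTA quench. Reactions held 5 nM GST-tagged DLK catalytic domain (1-520), 40 nM HIS-MKK4 K131M substrate, 30 μM ATP and compound (3-fold series from 20 uM), 60 min, room temperature, pH 7.5.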
In general terms: Time-resolved FRET reads energy transfer from a long-lived donor to a nearby acceptor.
Take “5-(1-isopropyl-5-((1R,3s,5S,6R)- 3-((R)-2-methylmorpholino) bicyclo[3.1.0]hexan-6-yl)-1H- pyrazol-3-yl)-3-(trifluoromethyl) pyridin-2-amine [compound 1]”: the Ki stood at 2.28 nM.
`CC(C)n1nc(-c2cnc(N)c(OC(F)(F)F)c2)cc1[C@H]1[C@@H]2C[C@@H](N3CCN(C)C[C@@H]3C)C[C@@H]21` [compound 237, 5-(5-((1R,3s,5S,6S)-3-((S)-2,4-dimethylpiperazin-1-yl)bicyclo [3.1.0]hexan-6-yl)-1-isopropyl-1H-pyrazol-3-yl)-3-(trifluoro-methoxy)pyridin-2-amine] registered a Ki of 1.1 nM.
Consider `CO[C@@H]1CCN([C@@H]2C[C@@H]3[C@H](C2)[C@H]3c2cc(-c3cnc(N)c(C(F)(F)F)c3)nn2C(C)C)C1` [compound 192, 5-(1-isopropyl-5-((1R,3s,5S,6R)-3-((R)-3-methoxypyrrolidin-1-yl)bicyclo[3.1.0]hexan-6-yl)-1H-pyrazol-3-yl)-3-(trifluoromethyl) pyridin-2-amine], for which the affinity corresponds to a Ki of 2.6 nM.
`CC(C)n1nc(-c2cnc(N)c(OC(F)(F)F)c2)cc1[C@H]1[C@@H]2C[C@@H](N3CCN(C)CC3)C[C@@H]21` [compound 66, 5-(1-isopropyl-5-((1R,3s,5S,6r)-3-(4-methylpiperazin-1-yl)bicyclo [3.1.0]hexan-6-yl)-1H-pyrazol-3-yl)-3-(trifluoromethoxy) pyridin-2-amine] gave a Ki of 2.26 nM.
Compound `CC(C)n1nc(-c2cnc(N)c(OC(F)F)c2)cc1[C@H]1[C@@H]2C[C@@H](N3CCOC[C@H]3C)C[C@@H]21` [compound 82, 3-(difluoromethoxy)-5-(1-isopropyl-5-((1R,3s,5S,6R)-3-((R)-3-methylmorpholino)bicyclo[3.1.0]hexan-6-yl)-1H-pyrazol-3-yl) pyridin-2-amine] came in with a Ki of 1.43 nM.
The figure for `COCC1(F)CCN(C2C[C@@H]3C(c4cc(-c5cnc(N)c(OC(F)F)c5)nn4C(C)C)[C@@H]3C2)C1` (single isomer, unassigned) [compound 171] is 5.4 nM; for `CC(C)n1nc(-c2cnc(N)c(OC(F)F)c2)cc1[C@H]1[C@@H]2CC3(COC3)C[C@@H]21` [compound 170, 3-(difluoromethoxy)-5-(1-isopropyl-5-((1R,5S,6r)-spiro[bicyclo [3.1.0]hexane-3,3′-oxetan]-6-yl)-1H-pyrazol-3-yl)pyridin-2-amine] it is 4.5 nM.
The figure for `CC(C)n1nc(-c2cnc(N)c(OC(F)(F)F)c2)cc1[C@H]1[C@@H]2C[C@@H](N3CCOCC3)C[C@@H]21` [compound 68, 5-(1-isopropyl-5-((1R,3s,5S,6r)-3-morpholinobicyclo[3.1.0]hexan-6-yl)-1H-pyrazol-3-yl)-3-(trifluoromethoxy)pyridin-2-amine] is 1.2 nM.
With `COC1CCN([C@@H]2C[C@@H]3[C@H](C2)[C@H]3c2cc(-c3cnc(N)c(OC(F)F)c3)nn2C(C)C)CC1` [compound 250, 3-(difluoromethoxy)-5-(1-isopropyl-5-((1R,3s,5S,6r)-3-(4-methoxy-piperidin-1-yl)bicyclo[3.1.0]hexan-6-yl)-1H-pyrazol-3-yl) pyridin-2-amine], the affinity, expressed as Ki, was 2 nM.
As to `CC(C)n1nc(-c2cnc(N)c(C(F)(F)F)c2)cc1[C@@H]1[C@@H]2C[C@H](N3CCOCC3)C[C@@H]21` [compound 126, 5-(1-isopropyl-5-((1R,5S,6s)-3-morpholinobicyclo[3.1.0]hexan-6-yl)-1H-pyrazol-3-yl)-3-(trifluoro-methyl)pyridin-2-amine], the Ki was > 1600 nM.
Take `CC(C)N1CCN([C@@H]2C[C@@H]3[C@H](C2)[C@H]3c2cc(-c3cnc(N)c(OC(F)F)c3)nn2C(C)C)CC1` [compound 176, 3-(difluoromethoxy)-5-(1-isopropyl-5-((1R,3s,5S,6r)-3-(4-isopropyl-piperazin-1-yl)bicyclo[3.1.0]hexan-6-yl)-1H-pyrazol-3-yl) pyridin-2-amine]: the Ki amounted to 1.8 nM.
For the compound `Nc1ncc(-c2cc([C@H]3[C@@H]4C[C@@H](N5CCCOCC5)C[C@@H]43)n(CC(F)F)n2)cc1C(F)(F)F` [compound 135, 5-(5-((1R,3s,5S,6r)-3-(1,4-oxazepan-4-yl)bicyclo[3.1.0]hexan-6-yl)-1-(2,2-difluoroethyl)-1H-pyrazol-3-yl)-3-(trifluoromethyl) pyridin-2-amine], the Ki turned out to be 5.57 nM.
The compound `CC(C)n1nc(-c2cnc(N)c(OC(F)F)c2)cc1[C@H]1[C@@H]2C[C@@H](N3C[C@@H](F)[C@@H](F)C3)C[C@@H]21` [compound 119, 3-(difluoromethoxy)-5-(5-((1R, 3s,5S,6R)-3-((3S,4R)-3,4-difluoro-pyrrolidin-1-yl)bicyclo[3.1.0]hexan-6-yl)-1-isopropyl-1H-pyrazol-3-yl)pyridin-2-amine] yielded a Ki of 6.64 nM.
Turning to `COCCO[C@@H]1C[C@@H]2[C@H](C1)[C@H]2c1cc(-c2cnc(N)c(C(F)(F)F)c2)nn1C(C)C` [compound 275, 5-(1-isopropyl-5-((1R,3s,5S,6r)-3-(2-methoxyethoxy)bicyclo [3.1.0]hexan-6-yl)-1H-pyrazol-3-yl)-3-(trifluoromethyl)pyridin-2-amine], the Ki turned out to be 4.7 nM. This Ki and that of the compound before are within 1.5-fold of each other.
`CC(C)n1nc(-c2cnc(N)c(OC(F)F)c2)cc1[C@H]1[C@@H]2C[C@@H](N3CC[C@H](F)C3)C[C@@H]21` [compound 289, 3-(difluoromethoxy)-5-(5-((1R,3s,5S,6S)-3-((S)-3-fluoropyrrolidin-1-yl)bicyclo[3.1.0]hexan-6-yl)-1-isopropyl-1H-pyrazol-3-yl) pyridin-2-amine] gave a Ki of 4.4 nM.
In turn, `CC(C)n1nc(-c2cnc(N)c(OC(F)(F)F)c2)cc1[C@H]1[C@@H]2C[C@H](N3C[C@H]4C[C@@H]3CO4)C[C@@H]21` [compound 56, 5-(5-((1R,3r,5S,6R)-3-((1R,4R)-2-oxa-5-azabicyclo[2.2.1]heptan-5-yl)bicyclo[3.1.0]hexan-6-yl)-1-isopropyl-1H-pyrazol-3-yl)-3-(trifluoromethoxy)pyridin-2-amine] showed a Ki of 4.81 nM.
In turn, `CC(C)n1nc(-c2cnc(N)c(OC(F)F)c2)cc1[C@H]1[C@@H]2C[C@@H](N3CC4(CCCO4)C3)C[C@@H]21` [compound 223, 5-(5-((1R,3s,5S,6r)-3-(5-oxa-2-azaspiro[3.4]octan-2-yl)bicyclo [3.1.0]hexan-6-yl)-1-isopropyl-1H-pyrazol-3-yl)-3-(difluoro-methoxy)pyridin-2-amine] displayed an inhibition constant Ki of 2.6 nM.
In the case of `CC(C)n1nc(-c2cnc(N)c(C(F)(F)F)c2)cc1[C@H]1[C@@H]2C[C@@H](N3C[C@@H]4C[C@H]3CN4C)C[C@@H]21` [compound 207, 5-(1-isopropyl-5-((1R,3s,5S,6S)-3-((1S,4S)-5-methyl-2,5-diazabicyclo [2.2.1]heptan-2-yl)bicyclo [3.1.0]hexan-6-yl)-1H-pyrazol-3-yl)-3-(trifluoromethyl) pyridin-2-amine] it was 3.6 nM.
`CC(C)n1nc(-c2cnc(N)c(OCC(F)(F)F)c2)cc1[C@H]1[C@@H]2C[C@@H](N3CCOCC3)C[C@@H]21` [compound 96, 5-(1-isopropyl-5-((1R,3s,5S,6r)-3-morpholinobicyclo[3.1.0]hexan-6-yl)-1H-pyrazol-3-yl)-3-(2,2,2-trifluoroethoxy)pyridin-2-amine] registered a Ki of 19 nM.
On to `CO[C@H]1CCN([C@@H]2C[C@@H]3[C@H](C2)[C@H]3c2cc(-c3cnc(N)c(C(F)(F)F)c3)nn2C(C)C)C1` [compound 90, (1-isopropyl-5-((1R,3s,5S,6S)-3-((S)-3-methoxypyrrolidin-1-yl)bicyclo[3.1.0]hexan-6-yl)-1H-pyrazol-3-yl)-3-(trifluoromethyl) pyridin-2-amine], for which the Ki worked out at 5.95 nM.
Compound `CC(C)n1nc(-c2cnc(N)c(OC(F)F)c2)cc1[C@H]1[C@@H]2C[C@@H](N3CCOCC3)C[C@@H]21` [compound 84, 3-(difluoromethoxy)-5-(1-isopropyl-5-((1R,3s,5S,6r)-3-morpholino-bicyclo[3.1.0]hexan-6-yl)-1H-pyrazol-3-yl)pyridin-2-amine] had a Ki of 1.68 nM.

The term Ki denotes a dissociation constant, usually derived from enzyme kinetics or from competition with a known ligand. A high value points to lower affinity.

The record behind these values is US9365583B2, “Substituted pyrazoles and uses thereof” (Genentech, Inc., priority 2013, dated 2016).
